What all share (experiment): IP1 accumulation
What all share (type): cell-based
Common to all, as to settings: mean ± S.E.M.; for Emax: IP1 maximal response, SEM

Test [1] deals with T1, hCTR N288A (Homo sapiens, UniProt P30988, N288A).
T1 construct: expressed in transfected cells
T1 sequence (P30988 25-474 N288A): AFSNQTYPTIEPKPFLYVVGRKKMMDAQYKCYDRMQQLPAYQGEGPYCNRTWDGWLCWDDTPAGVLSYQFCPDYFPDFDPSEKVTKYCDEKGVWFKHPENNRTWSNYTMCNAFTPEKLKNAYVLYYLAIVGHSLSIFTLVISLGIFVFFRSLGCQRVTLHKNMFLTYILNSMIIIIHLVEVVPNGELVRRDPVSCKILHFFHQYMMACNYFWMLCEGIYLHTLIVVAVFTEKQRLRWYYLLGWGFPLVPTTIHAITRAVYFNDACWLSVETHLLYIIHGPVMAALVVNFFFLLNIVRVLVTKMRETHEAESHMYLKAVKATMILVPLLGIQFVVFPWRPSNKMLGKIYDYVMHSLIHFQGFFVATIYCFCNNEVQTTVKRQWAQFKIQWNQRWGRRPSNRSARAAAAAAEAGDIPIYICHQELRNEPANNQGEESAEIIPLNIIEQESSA
On the procedure:
(§1) Cells (2.5 × 10^4 cells/well) were plated into 96 well trays and cultured overnight. Cells were stimulated with increasing concentration of ligands for 60 min in the presence of LiCl. Samples were lysed and endogenous IP1 was measured using an IP-One HTRF® assay kit (CisBio) as specified by the manufacturer. Data were normalized to the maximal response elicited by 100 μM of ATP.
(§2) Data were corrected for radioligand occupancy using the Cheng-Prusoff equation in Prism; as such data are reported as pKi. Emax and EC50 were estimated from concentration-response curves using with a 3-parameter logistic equation in Prism (v7). These values are a composite of functional affinity, efficacy and stimulus response coupling. […] Significance was accepted at P < 0.05.

Test [2] deals with T2, hCTR R281A (Homo sapiens, UniProt P30988, R281A).
T2 construct: expressed in transfected cells
T2 sequence (P30988 25-474 R281A): T1 sequence (P30988 25-474 N288A) with R257A, A264N
The procedure: as §1, §2

Test [3] addresses T3, hCTR R362A (Homo sapiens, UniProt P30988, R362A).
T3 construct: expressed in transfected cells
T3 sequence (P30988 25-474 R362A): T1 sequence (P30988 25-474 N288A) with A264N, R338A
The procedure:
as §1, §2

Test [4] has as its target T4, hCTR V375A (Homo sapiens, UniProt P30988, V375A).
T4 construct: c-Myc (N); expressed in transfected cells
T4 sequence (P30988 25-474 V375A): T1 sequence (P30988 25-474 N288A) with A264N, V351A
The procedure: as §1, §2

Test [5] deals with T5, hCTR Y284A (Homo sapiens, UniProt P30988, Y284A).
T5 construct: expressed in transfected cells
T5 sequence (P30988 25-474 Y284A): T1 sequence (P30988 25-474 N288A) with Y260A, A264N
The procedure:
as §1, §2

Setting [6] is: IP1, CV1-FlpIn cells, 60 min, LiCl.

Where a chain is given by its changes, count along the chain named. Where a SMILES comes first, the peptide text is derived from it. Bridges are numbered along the chain shown (N, C = ends).

In general, Emax refers to the size of the effect at its maximum, as opposed to the concentration needed. Take `CC[C@H](C)[C@H](NC(=O)[C@H](C)NC(=O)[C@@H](NC(=O)[C@H](CCC(N)=O)NC(=O)[C@@H]1CCCN1C(=O)[C@H](Cc1ccccc1)NC(=O)[C@@H](NC(=O)[C@H](Cc1c[nH]cn1)NC(=O)[C@H](Cc1ccccc1)NC(=O)[C@H](CCCCN)NC(=O)[C@H](CC(N)=O)NC(=O)[C@H](Cc1ccccc1)NC(=O)[C@H](CC(=O)O)NC(=O)[C@H](CCC(N)=O)NC(=O)[C@@H](NC(=O)[C@H](Cc1ccc(O)cc1)NC(=O)[C@@H](NC(=O)CNC(=O)[C@H](CC(C)C)NC(=O)[C@H](CCSC)NC(=O)[C@@H]1CSSC[C@H](N)C(=O)NCC(=O)N[C@@H](CC(N)=O)C(=O)N[C@@H](CC(C)C)C(=O)N[C@@H](CO)C(=O)N[C@@H]([C@@H](C)O)C(=O)N1)[C@@H](C)O)[C@@H](C)O)[C@@H](C)O)[C@@H](C)O)C(=O)NCC(=O)N[C@H](C(=O)NCC(=O)N[C@@H](C)C(=O)N1CCC[C@H]1C(N)=O)C(C)C` [hCT]: the maximal effect (Emax) in test [1] is 91 ± 8%; in test [2], 30 ± 4%; in test [3], 77 ± 11%; in test [4] it was 104 ± 6%; in test [5], 81 ± 12%.

As usually defined, the EC50 is the concentration at which the effect is half-maximal. `CSCC[C@H](NC(=O)CNC(=O)[C@H](CO)NC(=O)[C@H](Cc1ccccc1)NC(=O)[C@H](CCCNC(=N)N)NC(=O)[C@H](Cc1c[nH]cn1)NC(=O)[C@H](Cc1ccccc1)NC(=O)[C@H](CC(N)=O)NC(=O)[C@H](CC(N)=O)NC(=O)[C@H](CC(C)C)NC(=O)[C@H](CC(N)=O)NC(=O)[C@H](CCCNC(=N)N)NC(=O)[C@H](Cc1c[nH]c2ccccc12)NC(=O)[C@H](Cc1ccc(O)cc1)NC(=O)[C@H](C)NC(=O)[C@H](CO)NC(=O)[C@H](CC(C)C)NC(=O)[C@@H](NC(=O)[C@@H]1CSSC[C@H](N)C(=O)N[C@@H](CO)C(=O)N[C@@H](CC(N)=O)C(=O)N[C@@H](CC(C)C)C(=O)N[C@@H](CO)C(=O)N[C@@H]([C@@H](C)O)C(=O)N1)C(C)C)C(=O)NCC(=O)N[C@@H](Cc1ccccc1)C(=O)NCC(=O)N1CCC[C@H]1C(=O)N[C@@H](CCC(=O)O)C(=O)N[C@H](C(=O)N1CCC[C@H]1C(N)=O)[C@@H](C)O` [pCT] (H-CSNLSTCVLSAYWRNLNNFHRFSGMGFGPETP-NH2; disulfide 1-7): the concentration for a half-maximal effect (EC50) in test [1] (setting [6]) is 1.91 nM; in test [2] (setting [6]) it was 2.24 nM; in test [3] (setting [6]), 19.5 nM; in test [4] (setting [6]), 1.17 nM; in test [5] (setting [6]), 1.15 nM. Besides, the Emax in test [1] came to 93 ± 7%; in test [2], 52 ± 4%; in test [3], 47 ± 9%; in test [4], 100 ± 5%; in test [5], 94 ± 6%.

With `CC(C)C[C@H](NC(=O)[C@H](CCCCN)NC(=O)CNC(=O)[C@H](CC(C)C)NC(=O)[C@@H](NC(=O)[C@@H]1CSSC[C@H](N)C(=O)N[C@@H](CO)C(=O)N[C@@H](CC(N)=O)C(=O)N[C@@H](CC(C)C)C(=O)N[C@@H](CO)C(=O)N[C@@H]([C@@H](C)O)C(=O)N1)C(C)C)C(=O)N[C@@H](CO)C(=O)N[C@@H](CCC(N)=O)C(=O)N[C@@H](CCC(=O)O)C(=O)N[C@@H](CC(C)C)C(=O)N[C@@H](Cc1c[nH]cn1)C(=O)N[C@@H](CCCCN)C(=O)N[C@@H](CC(C)C)C(=O)N[C@@H](CCC(N)=O)C(=O)N[C@H](C(=O)N[C@@H](Cc1ccc(O)cc1)C(=O)N1CCC[C@H]1C(=O)N[C@@H](CCCNC(=N)N)C(=O)N[C@H](C(=O)N[C@@H](CC(N)=O)C(=O)N[C@H](C(=O)NCC(=O)N[C@@H](CO)C(=O)NCC(=O)N[C@H](C(=O)N1CCC[C@H]1C(N)=O)[C@@H](C)O)[C@@H](C)O)[C@@H](C)O)[C@@H](C)O` [sCT], the Emax in test [1] was 119 ± 6%; in test [2], 91 ± 6%; in test [3], 64 ± 5%; in test [4], 87 ± 5%; in test [5], 118 ± 7%.

For the origin of these results see PMC5908784, “Extracellular loops 2 and 3 of the calcitonin receptor selectively modify agonist binding and efficacy” (Biochemical Pharmacology, 2018).
